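Interpolation was linear, between the two tested concentrations surrounding the appropriate level; five concentrations were tested over 48 hours in 96-well plates. GI50: concentration for 50% inhibition of growth. TGI: total growth inhibition.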
Key:
Test in all cases: NCI anticancer screen, dose series, 48 h
786-0 renal = test system: 786-0 renal
DMS 114 small cell lung = test system: DMS 114 small cell lung
LOX IMVI melanoma = test system: LOX IMVI melanoma
HT29 colon = test system: HT29 colon
HOP-92 NSCLC = test system: HOP-92 NSCLC
UO-31 renal = test system: UO-31 renal
HOP-62 NSCLC = test system: HOP-62 NSCLC
SF-268 CNS = test system: SF-268 CNS
SK-MEL-2 melanoma = test system: SK-MEL-2 melanoma
MOLT-4 leukemia = test system: MOLT-4 leukemia
SK-MEL-5 melanoma = test system: SK-MEL-5 melanoma
RPMI-8226 leukemia = test system: RPMI-8226 leukemia
SW-620 colon = test system: SW-620 colon
HOP-18 NSCLC = test system: HOP-18 NSCLC
SNB-75 CNS = test system: SNB-75 CNS
KM20L2 colon = test system: KM20L2 colon
A498 renal = test system: A498 renal
SK-MEL-28 melanoma = test system: SK-MEL-28 melanoma
UACC-257 melanoma = test system: UACC-257 melanoma
SF-539 CNS = test system: SF-539 CNS
HCT-15 colon = test system: HCT-15 colon
CAKI-1 renal = test system: CAKI-1 renal
MALME-3M melanoma = test system: MALME-3M melanoma
K-562 leukemia = test system: K-562 leukemia
SNB-78 CNS = test system: SNB-78 CNS
M19-MEL melanoma = test system: M19-MEL melanoma
NCI-H23 lung = test system: NCI-H23 lung
DMS 273 small cell lung = test system: DMS 273 small cell lung
SF-295 CNS = test system: SF-295 CNS
OVCAR-3 ovarian = test system: OVCAR-3 ovarian
TK-10 renal = test system: TK-10 renal
EKVX NSCLC = test system: EKVX NSCLC
HL-60(TB) leukemia = test system: HL-60(TB) leukemia
IGROV1 ovarian = test system: IGROV1 ovarian
SN12C renal = test system: SN12C renal
KM12 colon = test system: KM12 colon
DLD-1 colon = test system: DLD-1 colon
CCRF-CEM leukemia = test system: CCRF-CEM leukemia
UACC-62 melanoma = test system: UACC-62 melanoma
RXF 393 renal = test system: RXF 393 renal
SK-OV-3 ovarian = test system: SK-OV-3 ovarian
COLO 205 colon = test system: COLO 205 colon
A549 NSCLC = test system: A549 NSCLC
RXF-631 renal = test system: RXF-631 renal
U251 CNS = test system: U251 CNS
NCI-H460 lung = test system: NCI-H460 lung
NCI-H226 lung = test system: NCI-H226 lung
ACHN renal = test system: ACHN renal
OVCAR-5 ovarian = test system: OVCAR-5 ovarian
HCC-2998 colon = test system: HCC-2998 colon
NCI-H522 lung = test system: NCI-H522 lung
SNB-19 CNS = test system: SNB-19 CNS
OVCAR-8 ovarian = test system: OVCAR-8 ovarian

In the case of `CC(C)OP(=O)(CP(=O)(OC(C)C)OC(C)C)OC(C)C.[CH3][Sn]([Br])([Br])[Br]`, the GI50 (786-0 renal) is reported as over 100 µM, the TGI (786-0 renal) is reported as over 100 µM and the GI50 (DMS 114 small cell lung) is reported as over 100 µM. It also gave a TGI (DMS 114 small cell lung) of over 100 µM, a GI50 (LOX IMVI melanoma) of over 100 µM and a TGI (LOX IMVI melanoma) of over 100 µM. It also gave a GI50 (HT29 colon) of over 100 µM, a TGI (HT29 colon) of over 100 µM and a GI50 (HOP-92 NSCLC) of over 100 µM. For the same compound, the TGI (HOP-92 NSCLC) was over 100 µM, the GI50 (UO-31 renal) was over 100 µM and the TGI (UO-31 renal) was over 100 µM. The GI50 (HOP-62 NSCLC) was over 100 µM, the TGI (HOP-62 NSCLC) was over 100 µM and the GI50 (SF-268 CNS) was over 100 µM. For the same compound, the TGI (SF-268 CNS) was over 100 µM, the GI50 (SK-MEL-2 melanoma) was over 100 µM and the TGI (SK-MEL-2 melanoma) was over 100 µM. It also gave a GI50 (MOLT-4 leukemia) of over 100 µM, a TGI (MOLT-4 leukemia) of over 100 µM and a GI50 (SK-MEL-5 melanoma) of over 100 µM. For the same compound, the TGI (SK-MEL-5 melanoma) was over 100 µM, the GI50 (RPMI-8226 leukemia) was over 100 µM and the TGI (RPMI-8226 leukemia) was over 100 µM. It also gave a GI50 (SW-620 colon) of over 100 µM, a TGI (SW-620 colon) of over 100 µM and a GI50 (HOP-18 NSCLC) of over 100 µM. For the same compound, the TGI (HOP-18 NSCLC) was over 100 µM, the GI50 (SNB-75 CNS) was over 100 µM and the TGI (SNB-75 CNS) was over 100 µM. It also gave a GI50 (KM20L2 colon) of over 100 µM, a TGI (KM20L2 colon) of over 100 µM and a GI50 (A498 renal) of over 100 µM. It also gave a TGI (A498 renal) of over 100 µM, a GI50 (SK-MEL-28 melanoma) of over 100 µM and a TGI (SK-MEL-28 melanoma) of over 100 µM. It also gave a GI50 (UACC-257 melanoma) of over 100 µM, a TGI (UACC-257 melanoma) of over 100 µM and a GI50 (SF-539 CNS) of over 100 µM. For the same compound, the TGI (SF-539 CNS) was over 100 µM, the GI50 (HCT-15 colon) was over 100 µM and the TGI (HCT-15 colon) was over 100 µM. The GI50 (CAKI-1 renal) was over 100 µM, the TGI (CAKI-1 renal) was over 100 µM and the GI50 (MALME-3M melanoma) was over 100 µM. For the same compound, the TGI (MALME-3M melanoma) was over 100 µM, the GI50 (K-562 leukemia) was over 100 µM and the TGI (K-562 leukemia) was over 100 µM. It also gave a GI50 (SNB-78 CNS) of over 100 µM, a TGI (SNB-78 CNS) of over 100 µM and a GI50 (M19-MEL melanoma) of over 100 µM. For the same compound, the TGI (M19-MEL melanoma) was over 100 µM, the GI50 (NCI-H23 lung) was over 100 µM and the TGI (NCI-H23 lung) was over 100 µM. For the same compound, the GI50 (DMS 273 small cell lung) was over 100 µM, the TGI (DMS 273 small cell lung) was over 100 µM and the GI50 (SF-295 CNS) was over 100 µM. The TGI (SF-295 CNS) was over 100 µM, the GI50 (OVCAR-3 ovarian) was over 100 µM and the TGI (OVCAR-3 ovarian) was over 100 µM. For the same compound, the GI50 (TK-10 renal) was over 100 µM, the TGI (TK-10 renal) was over 100 µM and the GI50 (EKVX NSCLC) was over 100 µM. It also gave a TGI (EKVX NSCLC) of over 100 µM, a GI50 (HL-60(TB) leukemia) of over 100 µM and a TGI (HL-60(TB) leukemia) of over 100 µM. For the same compound, the GI50 (IGROV1 ovarian) was over 100 µM, the TGI (IGROV1 ovarian) was over 100 µM and the GI50 (SN12C renal) was over 100 µM. For the same compound, the TGI (SN12C renal) was over 100 µM, the GI50 (KM12 colon) was over 100 µM and the TGI (KM12 colon) was over 100 µM. It also gave a GI50 (DLD-1 colon) of over 100 µM, a TGI (DLD-1 colon) of over 100 µM and a GI50 (CCRF-CEM leukemia) of over 100 µM. It also gave a TGI (CCRF-CEM leukemia) of over 100 µM, a GI50 (UACC-62 melanoma) of over 100 µM and a TGI (UACC-62 melanoma) of over 100 µM. For the same compound, the GI50 (RXF 393 renal) was over 100 µM, the TGI (RXF 393 renal) was over 100 µM and the GI50 (SK-OV-3 ovarian) was over 100 µM. It also gave a TGI (SK-OV-3 ovarian) of over 100 µM, a GI50 (COLO 205 colon) of over 100 µM and a TGI (COLO 205 colon) of over 100 µM. The GI50 (A549 NSCLC) was over 100 µM, the TGI (A549 NSCLC) was over 100 µM and the GI50 (RXF-631 renal) was over 100 µM. It also gave a TGI (RXF-631 renal) of over 100 µM, a GI50 (U251 CNS) of over 100 µM and a TGI (U251 CNS) of over 100 µM. For the same compound, the GI50 (NCI-H460 lung) was over 100 µM, the TGI (NCI-H460 lung) was over 100 µM and the GI50 (NCI-H226 lung) was over 100 µM. For the same compound, the TGI (NCI-H226 lung) was over 100 µM, the GI50 (ACHN renal) was over 100 µM and the TGI (ACHN renal) was over 100 µM. It also gave a GI50 (OVCAR-5 ovarian) of over 100 µM, a TGI (OVCAR-5 ovarian) of over 100 µM and a GI50 (HCC-2998 colon) of over 100 µM. It also gave a TGI (HCC-2998 colon) of over 100 µM, a GI50 (NCI-H522 lung) of over 100 µM and a TGI (NCI-H522 lung) of over 100 µM. The GI50 (SNB-19 CNS) was over 100 µM, the TGI (SNB-19 CNS) was over 100 µM and the GI50 (OVCAR-8 ovarian) was over 100 µM. The TGI (OVCAR-8 ovarian) was over 100 µM.
